The target in this assay is T1, human TLR8 (Homo sapiens, UniProt Q9NR97).
T1 construct: host or cells: HEK-Blue cells
T1 sequence (Q9NR97 27-1041): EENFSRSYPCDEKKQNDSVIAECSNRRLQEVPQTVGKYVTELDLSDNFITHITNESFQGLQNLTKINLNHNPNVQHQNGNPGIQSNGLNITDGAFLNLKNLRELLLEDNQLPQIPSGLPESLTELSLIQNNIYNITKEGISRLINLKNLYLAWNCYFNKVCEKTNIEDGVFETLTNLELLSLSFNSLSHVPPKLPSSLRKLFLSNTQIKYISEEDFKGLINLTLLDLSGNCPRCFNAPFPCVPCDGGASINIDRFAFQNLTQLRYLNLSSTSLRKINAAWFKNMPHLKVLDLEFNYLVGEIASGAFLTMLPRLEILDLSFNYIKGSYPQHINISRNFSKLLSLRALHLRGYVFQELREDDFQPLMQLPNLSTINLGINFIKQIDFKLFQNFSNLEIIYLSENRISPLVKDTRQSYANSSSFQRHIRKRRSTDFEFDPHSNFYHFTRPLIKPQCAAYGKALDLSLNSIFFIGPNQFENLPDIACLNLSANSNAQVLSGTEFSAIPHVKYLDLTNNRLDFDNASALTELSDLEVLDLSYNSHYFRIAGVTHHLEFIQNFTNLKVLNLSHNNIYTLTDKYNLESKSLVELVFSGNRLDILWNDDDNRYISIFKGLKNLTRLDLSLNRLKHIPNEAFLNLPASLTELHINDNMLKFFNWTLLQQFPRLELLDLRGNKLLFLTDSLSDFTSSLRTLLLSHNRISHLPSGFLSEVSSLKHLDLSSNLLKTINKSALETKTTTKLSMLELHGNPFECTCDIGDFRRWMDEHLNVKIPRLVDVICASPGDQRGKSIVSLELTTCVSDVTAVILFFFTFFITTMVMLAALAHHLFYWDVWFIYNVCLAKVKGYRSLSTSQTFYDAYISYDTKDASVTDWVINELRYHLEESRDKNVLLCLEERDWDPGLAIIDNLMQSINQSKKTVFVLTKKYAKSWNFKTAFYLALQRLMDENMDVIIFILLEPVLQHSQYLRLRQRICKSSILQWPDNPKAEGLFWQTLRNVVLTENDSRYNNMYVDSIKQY
Briefly: TLR8 inhibition reporter assay (HEK-Blue cells, SEAP reporter, R848 stimulation). It counts as cell-based. The note with it: HEK-Blue cells overexpressing human TLR8, R848 15.9 μM. In outline: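 22 h, 37° C, 5% CO2 incubation; compounds 0.05 nM-50 μM final; TLR7 cells 15000/well, TLR8 20,000/well. Readout: SEAP via HEK-Blue Detection medium. % inhibition = signal reduction versus agonist + DMSO wells, referenced to known inhibitor.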
Background: A reporter such as luciferase makes a cellular process visible.
In the case of `COc1ccc(-c2[nH]c3ccc(C4CCN(CC(=O)NCCCN(C)C)CC4)cc3c2CC(F)(F)F)cc1OC` [Example 382, 2-(4-(2-(3,4-dimethoxyphenyl)-3-(2,2,2-trifluoroethyl)-1H-indol-5-yl)piperidin-1-yl)-N-(3-(dimethylamino)propyl)acetamide], it took 0.062 µM to reach half-maximal inhibition (IC50). As for `CCN(CC)C(=O)C1CCCN(CC(=O)N2CCC(c3ccc4[nH]c(-c5ccc(OC)c(OC)c5)c(C)c4c3)CC2)C1` (stereo not shown) [Example 404, 1-(2-(4-(2-(3,4-dimethoxyphenyl)-3-methyl-1H-indol-5-yl)piperidin-1-yl)-2-oxoethyl)-N,N-diethylpiperidine-3-carboxamide], the concentration for half-maximal inhibition (IC50) (usually the concentration needed to halve the response being measured) worked out at 3.75 µM. The value for `COc1ccc(-c2[nH]c3ccc(C4CCN(C(=O)Cc5cccnc5)CC4)cc3c2CC(F)(F)F)cc1OC` [Example 335, 1-(4-(2-(3,4-dimethoxyphenyl)-3-(2,2,2-trifluoroethyl)-1H-indol-5-yl)piperidin-1-yl)-2-(pyridin-3-yl)ethan-1-one] was 0.632 µM; that for `COc1ccc(-c2[nH]c3ccc(C4CCNCC4F)cc3c2C(C)C)cc1OC` (single isomer, unassigned) [Example 322, 2-(3,4-dimethoxyphenyl)-5-(3-fluoropiperidin-4-yl)-3-isopropyl-1H-indole] was 0.022 µM. The value for `COc1ccc(-c2[nH]c3ccc(C4CCN(CC(=O)N5CCC(C(N)=O)CC5)CC4)cc3c2CC(F)(F)F)cc1OC` [Example 369, 1-(2-(4-(2-(3,4-dimethoxyphenyl)-3-(2,2,2-trifluoroethyl)-1H-indol-5-yl)piperidin-1-yl)acetyl)piperidine-4-carboxamide] was 0.043 µM. Next, `COc1ccc(-c2[nH]c3ccc(C4CCN(CC(=O)N5CCC(N(C)C)CC5)CC4)cc3c2CC(F)(F)F)cc1OC` [Example 364, 2-(4-(2-(3,4-dimethoxyphenyl)-3-(2,2,2-trifluoroethyl)-1H-indol-5-yl)piperidin-1-yl)-1-(4-(dimethylamino)piperidin-1-yl)ethan-1-one]: 0.076 µM; `COc1ccc(-c2[nH]c3ccc(C4CCN(C(=O)Cc5ccc(N(C)C)cc5)CC4)cc3c2CC(F)(F)F)cc1OC` [Example 338, 1-(4-(2-(3,4-dimethoxyphenyl)-3-(2,2,2-trifluoroethyl)-1H-indol-5-yl)piperidin-1-yl)-2-(4-(dimethylamino)phenyl)ethan-1-one]: 1.46 µM. Molecule `COc1ccc(-c2[nH]c3ccc(C4CCN(C(=O)CNC[C@@H](O)CO)CC4)cc3c2C)cc1OC` [Example 405, (R)-2-((2,3-dihydroxypropyl)amino)-1-(4-(2-(3,4-dimethoxyphenyl)-3-methyl-1H-indol-5-yl)piperidin-1-yl)ethan-1-one] showed an IC50 of 29.2 µM.

The molecule `COc1ccc(-c2[nH]c3ccc(C4CCNC(=O)C4)cc3c2C(C)C)cc1OC` (stereo not shown) [Example 326, 4-(2-(3,4-dimethoxyphenyl)-3-isopropyl-1H-indol-5-yl)piperidin-2-one] returned a half-maximal inhibitory concentration (IC50) of 0.192 µM. In turn, `COc1ccc(-c2[nH]c3ccc(C4CCN(C(=O)CN(C)C)CC4)cc3c2CC(F)(F)F)cc1OC` [Example 354, 1-(4-(2-(3,4-dimethoxyphenyl)-3-(2,2,2-trifluoroethyl)-1H-indol-5-yl)piperidin-1-yl)-2-(dimethylamino)ethan-1-one] returned an IC50 of 0.082 µM.

For `COc1ccc(-c2[nH]c3ccc(C4CCN(CC(=O)N5CCN(c6ncccn6)CC5)CC4)cc3c2CC(F)(F)F)cc1OC` [Example 368, 2-(4-(2-(3,4-dimethoxyphenyl)-3-(2,2,2-trifluoroethyl)-1H-indol-5-yl)piperidin-1-yl)-1-(4-(pyrimidin-2-yl)piperazin-1-yl)ethan-1-one], the concentration for half-maximal inhibition (IC50) is 0.074 µM.

`COc1ccc(-c2[nH]c3ccc(C4CCN(C)CC4)cc3c2CC(F)(F)F)cc1OC` [Example 355, 2-(3,4-dimethoxyphenyl)-5-(1-methylpiperidin-4-yl)-3-(2,2,2-trifluoroethyl)-1H-indole] returned an IC50 of 0.041 µM.

For `COc1ccc(-c2[nH]c3ccc(C4CCN(C(=O)Cc5c[nH]c6ccccc56)CC4)cc3c2CC(F)(F)F)cc1OC` [Example 332, 1-(4-(2-(3,4-dimethoxyphenyl)-3-(2,2,2-trifluoroethyl)-1H-indol-5-yl)piperidin-1-yl)-2-(1H-indol-3-yl)ethan-1-one], the midpoint of inhibition, the IC50, lay at 4.11 µM. Molecule `COc1ccc(-c2[nH]c3ccc(C4CCN(C(=O)CN(C)C)CC4)cc3c2C(O)C(F)(F)F)cc1OC` (stereo not shown) [Example 395, 1-(4-(2-(3,4-dimethoxyphenyl)-3-(2,2,2-trifluoro-1-hydroxyethyl)-1H-indol-5-yl)piperidin-1-yl)-2-(dimethylamino)ethan-1-one] showed a half-inhibitory concentration (IC50) of 0.438 µM.

For `COc1ccc(-c2[nH]c3ccc(C4CCNCC4F)cc3c2C(C)C)cc1OC` (single isomer, unassigned) [Example 323, 2-(3,4-dimethoxyphenyl)-5-(3-fluoropiperidin-4-yl)-3-isopropyl-1H-indole], half-maximal inhibition (IC50) was put at 0.02 µM. With `CCN(CC)C(=O)C1CCCN(CC(=O)N2CCC(c3ccc4[nH]c(-c5ccc(OC)c(OC)c5)c(C5CCOCC5)c4c3)CC2)C1` (stereo not shown) [Example 392, 1-(2-(4-(2-(3,4-dimethoxyphenyl)-3-(tetrahydro-2H-pyran-4-yl)-1H-indol-5-yl)piperidin-1-yl)-2-oxoethyl)-N,N-diethylpiperidine-3-carboxamide], it took 0.196 µM to reach half-maximal inhibition (IC50). `COc1ccc(-c2[nH]c3ccc(C4CCN(C(=O)NCCc5ccccc5)CC4)cc3c2CC(F)(F)F)cc1OC` [Example 357, 4-(2-(3,4-dimethoxyphenyl)-3-(2,2,2-trifluoroethyl)-1H-indol-5-yl)-N-phenethylpiperidine-1-carboxamide] had an IC50 of 0.943 µM. Next, `COc1ccc(-c2[nH]c3ccc(C4CCN(C(=O)[C@@H]5CCCN5C(C)=O)CC4)cc3c2CC(F)(F)F)cc1OC` [Example 336, (S)-1-(2-(4-(2-(3,4-dimethoxyphenyl)-3-(2,2,2-trifluoroethyl)-1H-indol-5-yl)piperidine-1-carbonyl)pyrrolidin-1-yl)ethan-1-one]: 0.697 µM; `COc1ccc(-c2[nH]c3ccc(C4CCN(CC(=O)NCC#N)CC4)cc3c2CC(F)(F)F)cc1OC` [Example 381, N-(cyanomethyl)-2-(4-(2-(3,4-dimethoxyphenyl)-3-(2,2,2-trifluoroethyl)-1H-indol-5-yl)piperidin-1-yl)acetamide]: 0.076 µM; `COc1ccc(-c2[nH]c3ccc(C4CCN(C(=O)C5CCN(C(C)=O)CC5)CC4)cc3c2CC(F)(F)F)cc1OC` [Example 345, 1-(4-(4-(2-(3,4-dimethoxyphenyl)-3-(2,2,2-trifluoroethyl)-1H-indol-5-yl)piperidine-1-carbonyl)piperidin-1-yl)ethan-1-one]: 1.03 µM. Next, `COc1ccc(-c2[nH]c3ccc(C4CCN(C(=O)Cc5cnccn5)CC4)cc3c2CC(F)(F)F)cc1OC` [Example 342, 1-(4-(2-(3,4-dimethoxyphenyl)-3-(2,2,2-trifluoroethyl)-1H-indol-5-yl)piperidin-1-yl)-2-(pyrazin-2-yl)ethan-1-one]: 0.591 µM; `COc1ccc(-c2[nH]c3ccc(C4CCN(CC(=O)NCCNC(C)=O)CC4)cc3c2CC(F)(F)F)cc1OC` [Example 379, N-(2-acetamidoethyl)-2-(4-(2-(3,4-dimethoxyphenyl)-3-(2,2,2-trifluoroethyl)-1H-indol-5-yl)piperidin-1-yl)acetamide]: 0.039 µM. Next, `COc1ccc(-c2[nH]c3ccc(C4CCN(CC(=O)NCCN(C)C)CC4)cc3c2CC(F)(F)F)cc1OC` [Example 380, 2-(4-(2-(3,4-dimethoxyphenyl)-3-(2,2,2-trifluoroethyl)-1H-indol-5-yl)piperidin-1-yl)-N-(2-(dimethylamino)ethyl)acetamide]: 0.055 µM; `COc1ccc(-c2[nH]c3ccc(C4CCN(CC(=O)N(C)CCCN(C)C)CC4)cc3c2CC(F)(F)F)cc1OC` [Example 365, 2-(4-(2-(3,4-dimethoxyphenyl)-3-(2,2,2-trifluoroethyl)-1H-indol-5-yl)piperidin-1-yl)-N-(3-(dimethylamino)propyl)-N-methylacetamide]: 0.024 µM. `COc1ccc(-c2[nH]c3ccc(C4CCN(C(=O)CC(F)(F)F)CC4)cc3c2CC(F)(F)F)cc1OC` [Example 339, 1-(4-(2-(3,4-dimethoxyphenyl)-3-(2,2,2-trifluoroethyl)-1H-indol-5-yl)piperidin-1-yl)-3,3,3-trifluoropropan-1-one] registered a half-maximal inhibitory concentration (IC50) of 0.822 µM.

The record behind these values is patent US11180474B2 (BRISTOL-MYERS SQUIBB COMPANY, priority 2016, dated 2021).
